Assay results as given in patent US20090018215A1, “Fumigant for wood parasitic nematodes and wood fumigation method” (priority 2004, published 2009).
Read-outs that look alike come from different tables or passages of the source.

System: Bursaphelenchus xylophilus
Type: in vivo
Conditions: 24 hours

SMILES | effect of killing nematodes (control area: methyl iodide as is, injected through injection syringe, 96 g/m^3, 10° C.) | effect of killing nematodes (control area: sulfuryl fluoride alone, 50 g/m^3, 15° C.)
CI [methyl iodide] | 98% | 
O=S(=O)(F)F [sulfuryl fluoride] |  | 89%
